# According to US20150135829A1, “Levitation of Materials in Paramagnetic Ionic Liquids” (Presidents and Fellows of Harvard College, priority 2012, published 2015):
# Columns and labels:
# Type in all cases: physicochemical
# [1] = Density and magnetic susceptibility of paramagnetic ionic liquids from MagLev levitation height of density standard beads; conditions: for ρ (density) / χ (magnetic susceptibility): calculated from levitation height vs density of standard beads (Mirica et al. JACS 2009 method); for Accessible Density Range: range of densities that can be levitated in MagLev
# Method: The density of a diamagnetic object was determined, from its levitation height, by suspending the object in a container filled with paramagnetic ionic liquid and placed the container between two NdFeB magnets oriented with like poles facing each other (see FIG. 5). Before using the paramagnetic ionic liquids as liquids for density based measurement using Maglev, the density and magnetic susceptibility of each paramagnetic ionic liquid was first determined (examples shown in FIG. 6). These properties can be calculated from a plot of the levitation height of objects with known density versus their density using previously disclosed methods. See, e.g., Mirica et al. JACS, 2009, 10049. See also, FIGS. 7-9, Table 1.
# [2] = Thermal stability by thermal gravimetric analysis (TGA)
# Method: The change in weight as a function of temperature was monitored by heating the sample from room temperature to 700° C. at a ramp rate of 10° C./min.
# (§1) Except for [BMIM][FeCl4], [GlyC2][FeCl2][BMIM]2[MnCl4], all paramagnetic ionic liquids were synthesized by mixing appropriate equivalents of the halide starting materials in methanol and allowed to stir overnight. The solvent was removed in vacuo affording paramagnetic ionic liquids in nearly quantitative yield. The synthesis of [BMIM][FeCl4], [GlyC2][FeCl4] was carried out by following reported literature procedure (Satoshi Hayashi and Hiro-o Hamaguchi Chemistry Letters 2004, 33 (12) 1590-1591; Masanari Okuno and Hiro-o Hamaguchi Applied Physics Letters 2006, 89, 132506). Specifically, BMIM Cl and FeCl3 were mixed together in a 1:1 molar ratio and stirred under nitrogen atmosphere. After stirring for 10 minutes at room temperature, BMIM FeCl4 was obtained as a brown colored ionic liquid. This procedure was also used for BMIM MnCl4 except that the mixture was gently heated at 60° C. for 5 minutes. The synthesized paramagnetic ionic liquids were characterized using elemental analysis (Robertson Microlit Labs, NJ). The glass transition temperature (Tg), melting point (Tm), and decomposition temperatures (Tdec) of the synthesized paramagnetic ionic liquids were obtained respectively using dynamic scanning calorimetry (DSC), and thermal gravimetric analysis (TGA).
# The thermal stability of the paramagnetic ionic liquids was measured using thermal gravimetric analysis (TGA). Most paramagnetic ionic liquids were thermally stable to at least 300° C. (see FIG. 4). The melting points (Tm), glass transition (Tg) and decomposition temperatures (Tdec) of the synthesized paramagnetic ionic liquids is provided below.
# [3] = Glass transition temperature by differential scanning calorimetry (DSC); conditions: cooling from 20° C. to −75° C. at 10° C./minute, then heating
# Method: as §1, with “The glass transition temperature (Tg), melting point (Tm), and decomposition temperatures (Tdec) of the synthesized paramagnetic ionic liquids were obtained respectively using dynamic scanning calorimetry (DSC), and thermal gravimetric analysis (TGA).” left out
# The glass transition temperatures and melting points of the synthesized paramagnetic ionic liquids were determined using differential scanning calorimetry (DSC) (see FIG. 3). […]
SMILES,ρ (density) [1],χ (magnetic susceptibility) [1],Accessible Density Range [1],Tdec (decomposition temperature) [2],Tg (glass transition temperature) [3],magnetic susceptibility (χ) [1]
COC(=O)[C@H](C)[NH3+].COC(=O)[C@H](C)[NH3+].[Cl][Mn-2]([Cl])([Cl])[Cl] [[AlaC1]2 [MnCl4]],1.24 g/mL,11.80 ×10^−4,0.63 to 1.86 g/mL,,,
COC(=O)[C@H](C)[NH3+].COC(=O)[C@H](C)[NH3+].COC(=O)[C@H](C)[NH3+].[Cl][Dy-3]([Cl])([Cl])([Cl])([Cl])[Cl] [[AlaC1]3 [DyCl6]],1.41 g/mL,9.58 ×10^−4,0.91 to 1.91 g/mL,,,
COC(=O)[C@H](C)[NH3+].COC(=O)[C@H](C)[NH3+].COC(=O)[C@H](C)[NH3+].[Cl][Gd-3]([Cl])([Cl])([Cl])([Cl])[Cl] [[AlaC1]3 [GdCl6]],1.31 g/mL,8.24 ×10^−4,0.89 to 1.74 g/mL,,,
COC(=O)[C@H](C)[NH3+].COC(=O)[C@H](C)[NH3+].COC(=O)[C@H](C)[NH3+].[Cl][Ho-3]([Cl])([Cl])([Cl])([Cl])[Cl] [[AlaC1]3 [HoCl6]],1.42 g/mL,9.70 ×10^−4,0.92 to 1.93 g/mL,,,
COC(=O)[C@H](C)[NH3+].[Cl][Fe-]([Cl])([Cl])[Cl] [[AlaC1] [FeCl4]],1.52 g/mL,6.62 ×10^−4,1.15 to 1.93 g/mL,,,
CCCCCCCC[N+](C)(CCCCCCCC)CCCCCCCC.CCCCCCCC[N+](C)(CCCCCCCC)CCCCCCCC.[Cl][Mn-2]([Cl])([Cl])[Cl] [[Aliq]2 [MnCl4]],0.96 g/mL,1.85 ×10^−4,0.90 to 100 g/mL,,,
CCCCCCCC[N+](C)(CCCCCCCC)CCCCCCCC.CCCCCCCC[N+](C)(CCCCCCCC)CCCCCCCC.CCCCCCCC[N+](C)(CCCCCCCC)CCCCCCCC.[Cl][Gd-3]([Cl])([Cl])([Cl])([Cl])[Cl] [[Aliq]3 [GdCl6]],0.97 g/mL,0.55 ×10^−4,0.95 to 0.99 g/mL,,,
CCCCCCCC[N+](C)(CCCCCCCC)CCCCCCCC.CCCCCCCC[N+](C)(CCCCCCCC)CCCCCCCC.CCCCCCCC[N+](C)(CCCCCCCC)CCCCCCCC.[Br][Ho-3]([Br])([Br])([Br])([Br])[Br] [[Aliq]3 [HoBr6]],1.08 g/mL,1.37 ×10^−4,1.01 to 1.15 g/mL,250 °C,,
CCCCCCCC[N+](C)(CCCCCCCC)CCCCCCCC.CCCCCCCC[N+](C)(CCCCCCCC)CCCCCCCC.CCCCCCCC[N+](C)(CCCCCCCC)CCCCCCCC.[Cl][Ho-3]([Cl])([Cl])([Cl])([Cl])[Cl] [[Aliq]3 [HoCl6]],0.95 g/mL,1.94 ×10^−4,0.85 to 1.05 g/mL,,,
CCCC[n+]1ccn(C)c1C.CCCC[n+]1ccn(C)c1C.CCCC[n+]1ccn(C)c1C.[Cl][Dy-3]([Cl])([Cl])([Cl])([Cl])[Cl] [[BDMIM]3 [DyCl6]],1.23 g/mL,3.49 ×10^−4,1.05 to 1.41 g/mL,,,
CCCC[n+]1ccn(C)c1.CCCC[n+]1ccn(C)c1.[Cl][Mn-2]([Cl])([Cl])[Cl] [[BMIM]2 [MnCl4]],1.24 g/mL,2.75 ×10^−4,1.09 to 1.37 g/mL,300 °C,−40 °C,
CCCCn1cc[n+](C)c1.CCCCn1cc[n+](C)c1.CCCCn1cc[n+](C)c1.[Cl][Dy-3]([Cl])([Cl])([Cl])([Cl])[Cl] [[BMIM]3 [DyCl6]],1.37 g/mL,12.37 ×10^−4,0.72 to 2.01 g/mL,350 °C,,12.4 ·10^−4
CCCC[n+]1ccn(C)c1.CCCC[n+]1ccn(C)c1.CCCC[n+]1ccn(C)c1.[Cl][Ho-3]([Cl])([Cl])([Cl])([Cl])[Cl] [[BMIM]3 [HoCl6]],1.29 g/mL,5.40 ×10^−4,1.30 to 1.35 g/mL,,,
CCCCn1cc[n+](C)c1.[Cl][Fe-]([Cl])([Cl])[Cl] [[BMIM] [FeCl4]],1.39 g/mL,8.28 ×10^−4,0.96 to 1.83 g/mL,,,
CCCCCCCCCCCCCC[P+](CCCCCC)(CCCCCC)CCCCCC.CCCCCCCCCCCCCC[P+](CCCCCC)(CCCCCC)CCCCCC.[Cl][Mn-2]([Cl])([Cl])[Cl] [[PR4]2[MnCl4]],,,,,−69 °C,
